Data published in patent US20120270929A1, “MODULATION OF TTC39 EXPRESSION TO INCREASE HDL” (ISIS Pharmaceuticals, Inc., priority 2009, published 2012).
Oligonucleotides are written 5' to 3', each unit as a sugar letter and its base; * is a phosphorothioate linkage, no mark a phosphodiester; rarer units and linkages stand in square brackets, end groups in braces. Plain capitals give the bases only. e = 2'-O-(2-methoxyethyl) (MOE); [5mC] = 5-methylcytosine; d = 2'-deoxy (DNA)

Tests used:
murine TTC39A mRNA [1] = test: Antisense inhibition of mouse TTC39A in b.END cells, single dose; assay type: cell-based; conditions: 70 nM, cytofectin, ~24 h, vs untreated control
Protocol: Antisense oligonucleotides were designed targeting a TTC39A nucleic acid and were tested for their effects on TTC39A mRNA in vitro. Cultured b.END cells at a density of 4,000 cells per well were transfected using cytofectin reagent with 70 nM antisense oligonucleotide. After a treatment period of approximately 24 hours, RNA was isolated from the cells and TTC39A mRNA levels were measured by quantitative real-time PCR. Mouse primer probe set RTS3262 (forward sequence TGTGCGTCATGCTGTTGCT, designated herein as SEQ ID NO: 113; reverse sequence […], designated herein as SEQ ID NO: 114; probe sequence […], designated herein as SEQ ID NO: 115). TTC39A mRNA levels were adjusted according to total RNA content, as measured by RIBOGREEN®. Results are presented as percent inhibition of TTC39A, relative to untreated control cells.
The chimeric antisense oligonucleotides targeting TTC39A were designed as 5-10-5 MOE gapmers. The gapmers are 20 nucleotides in length, wherein the central gap segment is comprised of ten 2′-deoxynucleotides and is flanked on both sides (in the 5′ and 3′ directions) by wings comprising five nucleotides each. Each nucleotide in the 5′ wing segment and each nucleotide in the 3′ wing segment has a 2′-MOE modification. The internucleoside linkages throughout each gapmer are phosphorothioate (P═S) linkages. All cytosine residues throughout each gapmer are 5-methylcytosines. “Mouse Target start site” indicates the 5′-most nucleotide to which the gapmer is targeted in a mouse nucleic acid sequence.

murine TTC39A mRNA [2] = test: Dose-dependent antisense inhibition of murine TTC39A in b.END cells; assay type: cell-based, mouse; conditions: ~16 h; for IC50: cytofectin
Protocol: Cells were plated at a density of 3,500 cells per well and transfected using cytofectin reagent with 4.375 nM, 8.75 nM, 17.5 nM, 35 nM, 70 nM, and 140 nM concentrations of antisense oligonucleotide, as specified in Table 28. After a treatment period of approximately 16 hours, RNA was isolated from the cells and TTC39A mRNA levels were measured by quantitative real-time PCR. Murine primer probe set RTS3262 was used to measure mRNA levels. TTC39A mRNA levels were adjusted according to total RNA content, as measured by RIBOGREEN®. Results are presented as percent inhibition of TTC39A, relative to untreated control cells.

Stabilin 1 (Stab1) mRNA = test: PCR microarray analysis of liver, LDLr-/- mice: Stab1; assay type: in vivo, mouse; conditions: 50 mg/kg, 6 weeks
Protocol: (§1) Four groups of five male mice each were injected with a total of 1.5, 5, 15, or 50 mg/kg/week of ISIS 447118 for 6 weeks. A group of five mice was injected with a total of 50 mg/kg/week of control oligonucleotide ISIS 141923 ([…], designated herein as SEQ ID NO: 112, which has no known murine target) for 6 weeks. A control group of five mice was injected with phosphate buffered saline (PBS) twice a week for 6 weeks. Plasma samples were obtained before the start of treatment, at week 3 and at week 6. At the end of the treatment period, the mice were euthanized. Plasma and tissue samples were obtained for further analysis.
(§2) Liver samples from the mice groups were analyzed using a commercial kit for PCR microarray analysis (SA Biosciences Corp., MD), according to the manufacturer's instructions. Genes involved in lipoprotein and cholesterol metabolism were compared with the PBS control.

[3] = system: Oxysterol binding protein-like 5 (Osbpl5) mRNA; test: PCR microarray analysis of liver, LDLr-/- mice: Osbpl5; assay type: in vivo, mouse; conditions: 50 mg/kg, 6 weeks
Protocol: as §1, §2

[4] = system: Proprotein convertase subtilisin/kexin type 9 (Pcsk9) mRNA; test: PCR microarray analysis of liver, LDLr-/- mice: Pcsk9; assay type: in vivo, mouse; conditions: 50 mg/kg, 6 weeks
Protocol: as §1, §2

[5] = system: Low density lipoprotein receptor (Ldlr) mRNA; test: PCR microarray analysis of liver, LDLr-/- mice: Ldlr; assay type: in vivo, mouse; conditions: 50 mg/kg, 6 weeks
Protocol: as §1, §2

[6] = Plasma cholesterol and triglycerides in LDLr-/- mice; assay type: in vivo, mouse; conditions: 50 mg/kg/week
Protocol: The LDLr knockout mice model is a model for familial hypercholesterolemia developed by Ishibashi et al (J Clin Invest 1993; 92: 883-893). On a normal chow diet, the mice have an average total cholesterol of 250 mg/dL due to increases in LDL and VLDL cholesterol. This model is therefore highly susceptible to atherosclerosis (Ishibashi et al Proc Natl Acad Sci USA 1994; 91: 4431-4435).
as §1
To investigate the effect of inhibition of TTC39B on triglycerides and cholesterol levels in the plasma, samples were collected on weeks 0, 3, and 6, and total plasma cholesterol, LDL cholesterol, HDL cholesterol, and triglycerides were analyzed on an Olympus AU400e Analyzer.

[7] = system: Farnesyl diphosphate synthetase (Fdps) mRNA; test: PCR microarray analysis of liver, LDLr-/- mice: Fdps; assay type: in vivo, mouse; conditions: 50 mg/kg, 6 weeks
Protocol: as §1, §2

[8] = system: Insulin induced gene 1 (Insig1) mRNA; test: PCR microarray analysis of liver, LDLr-/- mice: Insig1; assay type: in vivo, mouse; conditions: 50 mg/kg, 6 weeks
Protocol: as §1, §2

[9] = system: Mevalonate (diphospho) decarboxylase (Mvd) mRNA; test: PCR microarray analysis of liver, LDLr-/- mice: Mvd; assay type: in vivo, mouse; conditions: 50 mg/kg, 6 weeks
Protocol: as §1, §2

[10] = system: Sterol O-acyltransferase 2 (Soat2) mRNA; test: PCR microarray analysis of liver, LDLr-/- mice: Soat2; assay type: in vivo, mouse; conditions: 50 mg/kg, 6 weeks
Protocol: as §1, §2

[11] = system: Apolipoprotein A-IV (ApoA4) mRNA; test: PCR microarray analysis of liver, LDLr-/- mice: ApoA4; assay type: in vivo, mouse; conditions: 50 mg/kg, 6 weeks
Protocol: as §1, §2

## AGTTGGGACCCAGAAGGCCT (eA*eG*eT*eT*eG*dG*dG*dA*d[5mC]*d[5mC]*d[5mC]*dA*dG*dA*dA*eG*eG*e[5mC]*e[5mC]*eT; antisense) [ISIS 474497]
Murine TTC39A mRNA [1]
  % inhibition of murine TTC39A mRNA: 94%
Murine TTC39A mRNA [2]; 4.375 nM
  percent inhibition of TTC39A mRNA: 8%
Murine TTC39A mRNA [2]; 8.75 nM
  percent inhibition of TTC39A mRNA: 5%
Murine TTC39A mRNA [2]; 17.5 nM
  percent inhibition of TTC39A mRNA: 21%
Murine TTC39A mRNA [2]; 35.0 nM
  percent inhibition of TTC39A mRNA: 29%
Murine TTC39A mRNA [2]; 70.0 nM
  percent inhibition of TTC39A mRNA: 53%
Murine TTC39A mRNA [2]; 140.0 nM
  percent inhibition of TTC39A mRNA: 77%
Murine TTC39A mRNA [2]
  IC50: 72 nM

## CACCTGGGTTTGAGGTAGCT (e[5mC]*eA*e[5mC]*e[5mC]*eT*dG*dG*dG*dT*dT*dT*dG*dA*dG*dG*eT*eA*eG*e[5mC]*eT; antisense) [ISIS 474498]
Murine TTC39A mRNA [1]
  % inhibition of murine TTC39A mRNA: 95%
Murine TTC39A mRNA [2]; 4.375 nM
  percent inhibition of TTC39A mRNA: 0%
Murine TTC39A mRNA [2]; 8.75 nM
  percent inhibition of TTC39A mRNA: 6%
Murine TTC39A mRNA [2]; 17.5 nM
  percent inhibition of TTC39A mRNA: 33%
Murine TTC39A mRNA [2]; 35.0 nM
  percent inhibition of TTC39A mRNA: 55%
Murine TTC39A mRNA [2]; 70.0 nM
  percent inhibition of TTC39A mRNA: 64%
Murine TTC39A mRNA [2]; 140.0 nM
  percent inhibition of TTC39A mRNA: 80%
Murine TTC39A mRNA [2]
  IC50: 35 nM

## CCGCACTTTGATGCCGCCCT (e[5mC]*e[5mC]*eG*e[5mC]*eA*d[5mC]*dT*dT*dT*dG*dA*dT*dG*d[5mC]*d[5mC]*eG*e[5mC]*e[5mC]*e[5mC]*eT; antisense) [ISIS 474435]
Murine TTC39A mRNA [1]
  % inhibition of murine TTC39A mRNA: 94%
Murine TTC39A mRNA [2]; 4.375 nM
  percent inhibition of TTC39A mRNA: 0%
Murine TTC39A mRNA [2]; 8.75 nM
  percent inhibition of TTC39A mRNA: 2%
Murine TTC39A mRNA [2]; 17.5 nM
  percent inhibition of TTC39A mRNA: 11%
Murine TTC39A mRNA [2]; 35.0 nM
  percent inhibition of TTC39A mRNA: 8%
Murine TTC39A mRNA [2]; 70.0 nM
  percent inhibition of TTC39A mRNA: 52%
Murine TTC39A mRNA [2]; 140.0 nM
  percent inhibition of TTC39A mRNA: 76%
Murine TTC39A mRNA [2]
  IC50: 67 nM

## CCTTCCCTGAAGGTTCCTCC (chemistry not given here) [ISIS 141923, reference compound]
Stabilin 1 (Stab1) mRNA
  Stab1 fold increase/decrease relative to PBS group: 1.12 fold
[3]
  Osbpl5 fold increase/decrease relative to PBS group: 1.21 fold
[4]
  Pcsk9 fold increase/decrease relative to PBS group: 1.09 fold
[5]
  Ldlr fold increase/decrease relative to PBS group: 1.36 fold
[6]
  HDL cholesterol % increase on week 6 (% change over baseline): 43%
[6]; Week 0 (before treatment)
  HDL cholesterol levels: 76 mg/dL
  LDL cholesterol levels: 100 mg/dL
  total cholesterol levels: 206 mg/dL
  triglyceride levels: 97 mg/dL
[6]; Week 3
  HDL cholesterol levels: 78 mg/dL
  LDL cholesterol levels: 100 mg/dL
  total cholesterol levels: 204 mg/dL
  triglyceride levels: 116 mg/dL
[6]; Week 6
  HDL cholesterol levels: 108 mg/dL
  LDL cholesterol levels: 112 mg/dL
  total cholesterol levels: 227 mg/dL
  triglyceride levels: 143 mg/dL
[7]
  Fdps fold increase/decrease relative to PBS group: 1.21 fold
[8]
  Insig1 fold increase/decrease relative to PBS group: 1.13 fold
[9]
  Mvd fold increase/decrease relative to PBS group: 1.25 fold
[10]
  Soat2 fold increase/decrease relative to PBS group: 0.95 fold
[11]
  ApoA4 fold increase/decrease relative to PBS group: 0.87 fold

## CGCCTGGACTTCCGGATAGC (e[5mC]*eG*e[5mC]*e[5mC]*eT*dG*dG*dA*d[5mC]*dT*dT*d[5mC]*d[5mC]*dG*dG*eA*eT*eA*eG*e[5mC]; antisense) [ISIS 474369]
Murine TTC39A mRNA [1]
  % inhibition of murine TTC39A mRNA: 96%
Murine TTC39A mRNA [2]; 4.375 nM
  percent inhibition of TTC39A mRNA: 0%
Murine TTC39A mRNA [2]; 8.75 nM
  percent inhibition of TTC39A mRNA: 14%
Murine TTC39A mRNA [2]; 17.5 nM
  percent inhibition of TTC39A mRNA: 22%
Murine TTC39A mRNA [2]; 35.0 nM
  percent inhibition of TTC39A mRNA: 48%
Murine TTC39A mRNA [2]; 70.0 nM
  percent inhibition of TTC39A mRNA: 62%
Murine TTC39A mRNA [2]; 140.0 nM
  percent inhibition of TTC39A mRNA: 82%
Murine TTC39A mRNA [2]
  IC50: 44 nM
